Columns and labels:
LDL-C = experiment: Integrated analysis of six Phase 2 studies of Bempedoic acid; type: in vivo, human; conditions: for LDL-C placebo-adjusted LS means for percent change from baseline: integrated analysis of six Phase 2 studies
Protocol: Doses of Bempedoic acid ranging from 40 to 240 mg/day have been evaluated in the Phase 2 program. Based on data from the integrated analysis of safety and efficacy, observed values and percent change from baseline in the primary efficacy endpoint, LDL-C, together with a positive safety profile, support the choice of the 180-mg dose for the Phase 3 studies. […] Overall, balancing efficacy and safety, the 180-mg dose was chosen for the Phase 3 program.

patients = experiment: Phase 1 and 2 clinical trials of bempedoic acid: adverse events of special interest; type: in vivo, human; conditions: Phase 1 or 2 clinical trials to date
monkey = experiment: Preclinical monkey studies (hypoglycemia and metabolic acidosis)

`CC(C)(CCCCCC(O)CCCCCC(C)(C)C(=O)O)C(=O)O` [Bempedoic acid, 8-hydroxy-2,2,14,14 tetramethylpentadecanedioic acid] was tested. Which “safety profile of the 180-mg dose” value (LDL-C; Phase 2 program, 180 mg) did it give?
Its value is “excellent safety profile”.

What about the “LDL-C placebo-adjusted LS means for percent change from baseline” value (LDL-C; 180 mg on top of stable statin therapy) of the same compound?
The value was roughly 22%.

And the “LDL-C placebo-adjusted LS means for percent change from baseline” value (LDL-C; Bempedoic acid 180 mg, monotherapy or with Ezetimibe 10 mg)?
The value was “approximately 32%”.

And the “cases of hypoglycemia or metabolic acidosis” value (patients)?
Its value is “No cases”.

And the “outcome of hypoglycemia and metabolic acidosis” value (monkey)?
Its value is “monkey deaths”.

Source: patent US20210361618A1, “TRIPLET COMBINATION FORMULATIONS AND METHODS FOR TREATING OR REDUCING THE RISK OF CARDIOVASCULAR DISEASE” (priority 2017, published 2021)
